B1: 8762NT: nucleic acid ligand derived from human ribosomal DNA: CGGAGGGCGCGCGGGTCGGGGCGGCGGCGGCGGCGGCGGTGGCGGCGGCGGCGGGGGCGGCGGG (nucleic acid)
DNA: CGGAGGGCGCGCGGGTCGGGGCGGCGGCGGCGGCGGCGGTGGCGGCGGCGGCGGGGGCGGCGGG
modifications: chemistry not given here

These results are taken from patent US20110112086A1, “PYRIDINONE ANALOGS” (CYLENE PHARMACEUTICALS, INC., priority 2006, published 2011).

The first series relates to HCT-116. The series is described as follows: HCT-116 MTS cell viability assay. Type of series: cell-based. As to conditions: Homo sapiens, HCT-116 cells.
Broadly, the IC50 is the concentration needed to halve the response being measured. Consider `O=C(NCCN1CCCC1)c1c(=O)c2ccsc2n2c1sc1ccccc12`, for which the IC50 came out at 40 nM. For `O=C(NCCN1CCOCC1)c1c(=O)c2ccsc2n2c1sc1ccccc12`, the midpoint of inhibition, the IC50, lay at 2100 nM. `O=C(NCc1ccccn1)c1c(=O)c2ccsc2n2c1sc1ccccc12` registered an IC50 of 2050 nM. Regarding `CCOC(=O)c1c(=O)c2cc(Cl)sc2n2c1sc1ccccc12`, the IC50 worked out at 10000 nM. In turn, `O=C(NCCN1CCCC1)c1c(=O)c2cc(Cl)sc2n2c1sc1ccccc12` returned an IC50 of 10 nM. For `O=C(NCCN1CCCC1)c1c(=O)c2cc(N3CCCC3)sc2n2c1sc1ccccc12`, the IC50 turned out to be 50 nM. In turn, `CCOC(=O)c1c(=O)c2ccsc2n2c1sc1ccccc12` gave an IC50 of 9800 nM.

With `CCOC(=O)c1c(=O)c2ccsc2n2c1[nH]c1ccccc12`, the IC50 is 10000 nM. `Cn1c2cc3ccccc3cc2n2c3sccc3c(=O)c(C(=O)NCCN3CCCC3)c12` yielded an IC50 of 300 nM.

`CCOC(=O)c1c(=O)c2cc(Br)sc2n2c1sc1ccccc12` returned an IC50 of 10000 nM. In turn, `CCOC(=O)c1c(=O)c2ccsc2n2c1[nH]c1cc3ccccc3cc12` had an IC50 of 4000 nM. In turn, `Cn1c2ccccc2n2c3sccc3c(=O)c(C(=O)NCCN3CCCC3)c12` showed an IC50 of 3200 nM.

For the next series, the target named is T1, nucleolin (Homo sapiens, UniProt P19338).
T1 construct: without the N-terminal acidic stretches domain
T1 sequence (P19338 284-710 limits assumed): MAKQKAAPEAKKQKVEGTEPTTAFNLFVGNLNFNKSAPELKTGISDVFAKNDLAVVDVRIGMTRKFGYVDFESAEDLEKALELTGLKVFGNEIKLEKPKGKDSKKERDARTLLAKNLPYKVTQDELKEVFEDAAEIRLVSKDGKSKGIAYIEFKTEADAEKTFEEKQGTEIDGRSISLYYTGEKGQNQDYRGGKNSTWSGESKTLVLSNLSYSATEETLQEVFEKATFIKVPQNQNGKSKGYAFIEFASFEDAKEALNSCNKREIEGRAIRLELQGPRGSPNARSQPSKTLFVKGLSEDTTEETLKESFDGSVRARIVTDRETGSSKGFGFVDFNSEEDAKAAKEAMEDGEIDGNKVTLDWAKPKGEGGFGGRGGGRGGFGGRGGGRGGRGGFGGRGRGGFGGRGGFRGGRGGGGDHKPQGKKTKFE
As to the kind of experiment: Nucleolin/nucleic acid ligand gel retardation binding assay. The arrangement: key: A “+” represents the weakest nucleolin affinity; a “++++” represents the strongest nucleolin affinity. As to conditions: relative affinity of nucleic acid ligand for recombinant nucleolin (MBP fusion). As for the experimental part:
The following assays can be used to assess the effects of compounds on interactions between nucleolin and nucleic acid ligands capable of forming quadruplex (QP) and hairpin (HP) secondary structures. Nucleic acid ligands tested were a cMyc QP DNA having nucleotide sequence 5′-[…]-3′ and a HP pre-rRNA region to which nucleolin binds, having the sequence 5′-[…]-3′. In the assays, recombinant nucleolin (˜250 nM), which has been fused to maltose binding protein, and has the sequence under accession number NM_005381 without the N-terminal acidic stretches domain, is incubated with each of the two ^32P-labeled nucleic acid ligands (10 or 250 nM). Nucleolin and the nucleic acid ligand are incubated in the presence or absence of a test compound 7 in an incubation buffer (12.5 mM Tris, pH 7.6, 60 mM KCl, 1 mM MgCl2, 0.1 mM EDTA, 1 mM DTT, 5% glycerol, 0.1 mg/ml BSA) for 30 minutes at room temperature.
The resulting complexes are separated on a 6% DNA retardation gel using 0.5×TBE with 20 mM KCl as a running buffer. The assay also can be conducted using nucleic acid ligands derived from human ribosomal DNA, whereby one can identify a compound that selectively modulates formation of a nucleolin/nucleic acid complex that depends on the conformation of the nucleic acid. Sequences of suitable nucleic acids are shown in the preceding example. […] A “+” represents the weakest nucleolin affinity and a “++++” represents the strongest nucleolin affinity. […] Using nucleic acids such as these having known conformational properties, one can identify a compound such as the compounds described herein that selectively interferes with binding of nucleolin to a particular quadruplex structure.
Take “1196NT: nucleic acid ligand derived from human ribosomal DNA: GGGTGGACGGGGGGGCCTGGTGGGG (chemistry not given here) [Compound 1196NT]”: the “Affinity for Nucleolin” value is reported as “+”. With “6183NT: nucleic acid ligand derived from human ribosomal DNA: GGGTCGGGGGCGGTGGTGGGCCCGCGGGGG (chemistry not given here) [Compound 6183NT]”, the “Affinity for Nucleolin” value was “+”. On the same count and under the same terms, with “7733T: nucleic acid ligand derived from human ribosomal DNA: GGGAGGGGCACGGGCCGGGGGCGGGACGGG (chemistry not given here) [Compound 7733T]” the entry was “+”; with “8511NT: nucleic acid ligand derived from human ribosomal DNA: GGGGGTGGGCGGGCGGGGCCGGGGGTGGG (chemistry not given here) [Compound 8511NT]”, “++++”; with “8749NT: nucleic acid ligand derived from human ribosomal DNA: GGGAGGGCGCGCGGGTCGGGG (chemistry not given here) [Compound 8749NT]”, “+”.

Consider “11028NT: nucleic acid ligand derived from human ribosomal DNA: GGGGCGCGGCGGGGGGAGAAGGGTCGGGGCGGCAGGGG (chemistry not given here) [Compound 11028NT]”, for which the “Affinity for Nucleolin” value is recorded as “+”.

As for B1, the “Affinity for Nucleolin” value was “++++”.
